Assays:
[1] = system: hair cells in rat organ of Corti explant; conditions: Compound I 0.05 pM, pretreatment at plating, cisplatin exposure day 2 to day 4; untreated 17%
outer hair cells (OHC) = assay: Intramiddle ear neomycin-induced ototoxicity, compound given into the middle ear, outer hair cell loss; assay type: in vivo, guinea pig; conditions: for hair cells (protected) after neomycin: 5 mg neomycin, 14 days after second surgery
Procedure: Twenty guinea pigs used in this study were divided into two groups: 10 animals received 10 ng and 10 received 1 ng of the sensorineurotrophic compound.
Sensorineurotrophic compound stock A: A stock solution of sensorineurotrophic compound at 1 mg/10 ml in 100% ethanol was prepared and then diluted and mixed in Intralipid at 10 ng/100 μl.
Sensorineurotrophic compound stock B: A stock solution of sensorineurotrophic compound at 1 mg/100 ml in 100% ethanol was prepared and then diluted and mixed in 20% Intralipid at 1 ng/100 μl.
Animals were anesthetized with an intramuscular injection of a mixture of ketamine (80 mg/kg) and xylazine (4 mg/kg). Through a post-auricular incision, the right bulla was identified. A hole was drilled to open the middle ear cavity (care was taken not to injure the tympanic annulus or ossicles). A piece of gelfoam (˜2 mm^3) soaked with the sensorineurotrophic compound solution was inserted into the round window niche. The remaining sensorineurotrophic compound solution (˜100 μl) then was injected into the middle ear cavity. In the 10 ng dose group, 100 μl of sensorineurotrophic compound stock A was administered; and in the 1 ng dose group, 100 μl of sensorineurotrophic compound stock B was administered to the middle ear cavity. The hole was covered with a piece of clear plastic sheet which was stuck on the skull with a superglue. The incision was closed with clips. The same procedure was performed at the left bulla, but 100 μl of vehicle solution instead of sensorineurotrophic compound solution was administered. The animals were maintained in the prone position until they woke up to ensure filling of the middle ear cavity.
After two days, the animals received a second middle ear administration of sensorineurotrophic compound or vehicle together with neomycin. Solutions were prepared for the two groups of animals as follows:
Solution A: Neomycin was dissolved in sensorineurotrophic compound stock A described above. The final concentration of neomycin was 5 mg and the sensorineurotrophic compound concentration was 10 ng in a 100 μl vehicle solution.
Solution B: Neomycin was dissolved in sensorineurotrophic compound stock B described above. The final concentration of neomycin was 5 mg and the concentration of sensorineurotrophic compound was 1 ng in a 100 μl vehicle solution.
Solution C: Neomycin was dissolved in 20% Intralipid to a final concentration of 5 mg in 100 μl vehicle.
The plastic cover sheet on the bulla window was removed and the middle ear cavity was exposed. The old sensorineurotrophic compound or vehicle was sucked off and the old gelfoam was removed from the round window niche. A piece of gelfoam with fresh stock solution containing sensorineurotrophic compound and neomycin was administered to the round window niche, and the remaining solution (˜100 μl, solution A for the 10 ng dose group and solution B for the 1 ng dose group, respectively) was injected into the middle ear cavity of the right bulla.
Solution C (100 μl) was administered to the left ear for both groups in the same way.
Fourteen days after the second surgery, animals were perfused transcardially with a PBS flush followed by a fixative of 4% paraformaldehyde in 0.1M PBS. Immediately following the perfusion, the temporal bone was removed from the head. The bulla was opened and the cochlea was exposed. The apex was opened and the membrane of the round and oval windows was punched. The fixative solution was gently infused into the perilymphatic space through the apex hole and then allowed to flow out from windows. Then the cochleae were post-fixed in the same fixative solution for at least one day.
To identify and count hair cells in the organ of Corti, a direct immunostaining method was used to label the actin present naturally in the stereocilia bundles of the hair cells. The cochlea was dissected and the perilymphatic space was fully exposed. […]

hair cells = assay: Intramiddle ear neomycin-induced ototoxicity, compound given systemically (subcutaneous), hair cell loss; assay type: in vivo, guinea pig; conditions: 10 mg s.c. at day 0, 2 and 7
Procedure: Twenty guinea pigs were treated either with sensorineurotrophic compound or vehicle prior to administration of the ototoxin. Ten of the guinea pigs were subcutaneously injected with freshly made sensorineurotrophic compound solution. On the day of injection, 100 mg of the sensorineurotrophic compound was dissolved in 1 ml of ethanol, then 20% of the Intralipids solution was added to make a final volume of 3 ml. The final sensorineurotrophic compound concentration was 10 mg/0.3 ml. Each animal was subcutaneously injected with 0.3 ml of the sensorineurotrophic compound solution at day 0, day 2 and day 7. Another 10 animals were subcutaneously injected with 0.3 ml of the vehicle (20% Intralipids), individually at day 0, day 2 and day 7.
At day 2, guinea pigs used in this study were administered neomycin or neomycin vehicle in the middle ear.
Animals were anesthetized with intramuscular injection of a mixture of ketamine (80 mg/kg) and xylazine (4 mg/kg). Through a post-auricular incision, the right bulla was identified. A hole was drilled to open the middle ear cavity (care was taken not to injure the tympanic annulus or ossicles). A piece of gelfoam (˜2 mm^3) was soaked with neomycin solution (fresh made at a concentration of 50 mg/ml) and was inserted into the round window niche. The remaining neomycin solution (˜100 μl) was then injected into the middle ear cavity. […]

CCC(C)(C)C(=O)C(=O)N1CCC[C@H]1C(=O)OCCCc1cccnc1 [Compound I]
surviving hair cells [1]: 41.4% | hair cells (protected) after neomycin (outer hair cells (OHC); 1 ng in the middle ear): ~70% | Neomycin-induced OHC Loss (%), Right (Treated), mean ± SEM (outer hair cells (OHC); 1 ng intramiddle ear, turn-1, n = 7): 8.85 ± 1.47% | Neomycin-induced OHC Loss (%), Right (Treated), mean ± SEM (outer hair cells (OHC); 1 ng intramiddle ear, turn-2, n = 7): 4.01 ± 0.53% | Neomycin-induced OHC Loss (%), Right (Treated), mean ± SEM (outer hair cells (OHC); 1 ng intramiddle ear, turn-3, n = 7): 0.92 ± 0.10% | Neomycin-induced OHC Loss (%), Right (Treated), mean ± SEM (outer hair cells (OHC); 1 ng intramiddle ear, turn-4, n = 7): 1.67 ± 1.25% | Neomycin-induced OHC Loss (%), Right (Treated), mean ± SEM (outer hair cells (OHC); 1 ng intramiddle ear, whole cochlea, n = 7): 3.86 ± 0.37% | hair cells (protected) after neomycin (outer hair cells (OHC); 10 ng in the middle ear): around 75% | Neomycin-induced OHC Loss (%), Right (Treated), mean ± SEM (outer hair cells (OHC); 10 ng intramiddle ear, turn-1, n = 9): 15.47 ± 6.05% | Neomycin-induced OHC Loss (%), Right (Treated), mean ± SEM (outer hair cells (OHC); 10 ng intramiddle ear, turn-2, n = 9): 13.93 ± 10.75% | Neomycin-induced OHC Loss (%), Right (Treated), mean ± SEM (outer hair cells (OHC); 10 ng intramiddle ear, turn-3, n = 9): 11.64 ± 10.85% | Neomycin-induced OHC Loss (%), Right (Treated), mean ± SEM (outer hair cells (OHC); 10 ng intramiddle ear, turn-4, n = 9): 4.69 ± 2.85% | Neomycin-induced OHC Loss (%), Right (Treated), mean ± SEM (outer hair cells (OHC); 10 ng intramiddle ear, whole cochlea, n = 9): 11.44 ± 7.27% | protection of hair cells against ototoxicity, in words (outer hair cells (OHC); 10 ng or 1 ng in the middle ear, neomycin): protect completely hair cells against ototoxicity | loss of hair cells, in words (FIGS. 4A and 4B) (outer hair cells (OHC); all animals at 1 ng, all but one at 10 ng, neomycin and vehicle: almost complete loss): very minimal loss of hair cells | difference in the loss of hair cells between vehicle and treated animals (hair cells; 5 mg neomycin middle ear at day 2, day 16): ~31% | hair cell loss (hair cells; 5 mg neomycin middle ear, vehicle animals about 75%): about 45%

Source: patent publication US20040186098A1 (Amgen Inc., priority 1997, published 2004)
